Assay results published in patent US9795593B2, “Use of 3-(3-[1,2,4]-triazolo)-oxatriazolium-5-olate for treating sexual disorders” (LIMITED LIABILITY COMPANY “KONSORTSIUM-PIK”, priority 2014, dated 2017).
Marks after values point to notes of the source that are not given here.

Experiments:
[1] = system: sexual behaviour in male rats; assay: Sexual activity of male rats with a receptive female, 30-minute observation after the treatment cycle; type: in vivo, rat; set-up: key to Ejaculation rate / Muzzling, licking of the females: + - present; − - absent; details: for Intromission rate / Mounting rate: 30-minute period; for Intromission rate / Mounting rate / Intersession interval / Mounting latency: M ± m; for Intromission rate / Mounting rate / Intersession interval / Mounting latency / Ejaculation rate / Muzzling, licking of the females: n = 8
Procedure: (§1) In the model of arterial hypertension with endothelial dysfunction, endothelial NOS blocker N-nitro-L-arginine methyl ester (L-NAME) was administered intraperitoneally, 25 mg/kg, daily, for 7 days. The blocker was administered in 3% sodium chloride in the dose 1 ml/100 g of body weight. This combination of NO-synthase inhibitor with hypertonic solution provides RAAS activation, aldosterone discharge, retention of sodium and water, functional impairment of the vascular endothelium.
(§2) The animals were divided into the arms as follows: 1—intact animals; 2—control group, males (L-NAME+NaCl; physiological saline as placebo); 3—male rats that received AS-6 in the dose 0.5 mg/kg (Dose 1); 4—male rats that received AS-6 in the dose 5 mg/kg (Dose 2); 5—male rats that received AS-6 in the dose 10 mg/kg (Dose 3); 6—virgin female rats (only in the assessment of the sexual activity). Each group included 8 animals.
Testing of the animals' sexual activity was performed after the end of treatment cycle. Tested male was placed into the testing chamber (40×40×30 cm), 5 minutes before the presentation of sexually receptive female rat. One female was placed next to each male. The assessment of sexual behaviour was performed in the dark room at blind red light. The components of sexual activity were visually recorded during a 30-minute period: mounting latency (ML—interval from the female placing into the cage to the first male mounting) and the rate of mountings, intromissions and ejaculations.

[2] = system: conscious SHR and Wistar rats; details: cited from earlier work
[3] = system: vascular endothelial growth factor (VEGF); assay: Serum vascular endothelial growth factor (ELISA) in the model of arterial hypertension with endothelial dysfunction; type: in vivo, rat; details: for VEGF: rat serum at the end of experiment, M ± m, n = 8
Procedure: as §1, §2
Biochemical parameters were assessed with the use of prearranged kits (USCN Life Science Inc., USA, Bender MedSystems GmbH, Austria, R&D Systems, USA). The measurement was performed with the use of multifunctional photometer Synergy-2 (BioTek Instruments, Inc., USA). All studies were conducted in compliance with current laboratory regulations.
The assessment of endothelin-1, vascular endothelial growth factor and nitric oxide levels was performed in the rats' serum at the end of experiment with the use of immuno-enzyme analysis and spectrophotometric analysis with species-specific (rat-specific) antibodies.
Quantitative measurement of vascular endothelial growth factor (VEGF) was performed with the use of ELISA with Bender MedSystems GmbH (Austria) kits. Calibration solution 100 mcL, serum samples of the experimental animals (50 mcL) and sample diluent (50 mcL) were introduced into the plate wells. Then, 50 mcL of biotin conjugate were added. After 2-hour incubation at 20° C., the wells were 6 time rinsed, and 100 mcL of streptavidin/horseradish peroxidase conjugate were introduced into each well. Thereafter, the plate was incubated again at 37° C. for 1 hour. The plate was 6 times rinsed with washing buffer, and 100 mcL of TMB substrate were introduced into each well. After 30-minute incubation at 20° C., 100 mcL of stop-solution were added. The reaction was read at 450 and 620 nm.

For `[O-]c1n[n+](-c2nc[nH]n2)no1` [AS-6, 3-(3-[1,2,4]-triazolo)-oxatriazolium-5-olate], the “increase of number of animals with intromissions vs. control” value ([1]; AS-6 10 mg/kg) was 4 fold, the “number of animals with intromissions” value ([1]; AS-6 10 mg/kg) was 50% and the “animals with increased mounting rate vs. control” value ([1]; AS-6 0.5 and 5 mg/kg) was 40%. The “decrease of ML (mounting latency)” value ([1]; AS-6 0.5 and 5 mg/kg) was 1.5 fold, the “number of animals with intromissions” value ([1]; AS-6 0.5 and 5 mg/kg) was 25% and the “rats with increased intromission rate” value ([1]; AS-6 0.5 and 5 mg/kg) was 25%. The Intromission rate ([1]; Azasidnon 0.5 mg/kg) was 1.6 ± 1.4, the Mounting rate ([1]; Azasidnon 0.5 mg/kg) was 6.6 ± 2.8 and the Intersession interval ([1]; Azasidnon 0.5 mg/kg) was 8.8 ± 0.9 min. The Mounting latency ([1]; Azasidnon 0.5 mg/kg) was 3.9 ± 0.9*^ min, the Ejaculation rate ([1]; Azasidnon 0.5 mg/kg) was “−” and the “Muzzling, licking of the females” value ([1]; Azasidnon 0.5 mg/kg) was “+”. For the same compound, the Intromission rate ([1]; Azasidnon 5.0 mg/kg) was 1.4 ± 1.1, the Mounting rate ([1]; Azasidnon 5.0 mg/kg) was 7.4 ± 3.1 and the Intersession interval ([1]; Azasidnon 5.0 mg/kg) was 10.2 ± 2.2 min. The Mounting latency ([1]; Azasidnon 5.0 mg/kg) was 4.2 ± 1.9*^ min, the Ejaculation rate ([1]; Azasidnon 5.0 mg/kg) was “−” and the “Muzzling, licking of the females” value ([1]; Azasidnon 5.0 mg/kg) was “+”. For the same compound, the Intromission rate ([1]; Azasidnon 10.0 mg/kg) was 3.1 ± 1.5, the Mounting rate ([1]; Azasidnon 10.0 mg/kg) was 8.6 ± 2.6 and the Intersession interval ([1]; Azasidnon 10.0 mg/kg) was 7.5 ± 1.9 min. For the same compound, the Mounting latency ([1]; Azasidnon 10.0 mg/kg) was 3.2 ± 1.4*^ min, the Ejaculation rate ([1]; Azasidnon 10.0 mg/kg) was “−” and the “Muzzling, licking of the females” value ([1]; Azasidnon 10.0 mg/kg) was “+”. The “influence on ejaculation” value ([1]; all doses) was “did not influence”, the hypotensive effect [2] was “prolonged hypotensive effect” and the “effect on vascular endothelial growth factor production” value ([3]; 10 mg/kg dose: p=0.116 vs. control) was “dose-dependent trend to the normalization of vascular endothelial growth factor production”. It also gave a VEGF ([3]; AS-6 0.5 mg/kg) of 46.01 ± 2.42 pg/mL, a VEGF ([3]; AS-6 5.0 mg/kg) of 79.49 ± 19.75 pg/mL and a VEGF ([3]; AS-6 10.0 mg/kg) of 91.95 ± 21.84 pg/mL.
